Test results: ChEMBL document CHEMBL3045384, “Evaluating commercially available rodenticide baits for invasive Gambian giant pouched rats (Cricetomys gambianus)” (2010)

Tests used:
Type in all cases: functional
Cricetomys gambianus [1] = experiment: Rodenticidal activity against invasive Cricetomys gambianus (Gambian giant pouched rat) assessed as proportion of bait consumed using 0.01% compound blocks bait by 7 day multiple-choice feeding trail method
Cricetomys gambianus [2] = experiment: Rodenticidal activity against invasive Cricetomys gambianus (Gambian giant pouched rat) assessed as mean duration to death using 0.01% compound blocks bait by 7 day multiple-choice feeding trail method
Cricetomys gambianus [3] = experiment: Rodenticidal activity against invasive Cricetomys gambianus (Gambian giant pouched rat) assessed as rodent body weight using 0.01% compound blocks bait by 7 day multiple-choice feeding trail method (reference value: 1.44 kg)
Cricetomys gambianus [4] = experiment: Rodenticidal activity against invasive Cricetomys gambianus (Gambian giant pouched rat) assessed as rodent mortality using 0.01% compound blocks bait by 7 day multiple-choice feeding trail method
Cricetomys gambianus [5] = experiment: Rodenticidal activity against invasive Cricetomys gambianus (Gambian giant pouched rat) assessed as mean bait consumed using 0.01% compound blocks bait by 7 day multiple-choice feeding trail method
Cricetomys gambianus [6] = experiment: Rodenticidal activity against invasive Cricetomys gambianus (Gambian giant pouched rat) assessed as proportion of bait consumed using 0.005% compound blocks bait by 7 day multiple-choice feeding trail method
Cricetomys gambianus [7] = experiment: Rodenticidal activity against invasive Cricetomys gambianus (Gambian giant pouched rat) assessed as mean bait consumed using 0.005% compound pellets bait by 7 day multiple-choice feeding trail method
Cricetomys gambianus [8] = experiment: Rodenticidal activity against invasive Cricetomys gambianus (Gambian giant pouched rat) assessed as mean duration to death using 0.005% compound blocks bait by 7 day multiple-choice feeding trail method
Cricetomys gambianus [9] = experiment: Rodenticidal activity against invasive Cricetomys gambianus (Gambian giant pouched rat) assessed as proportion of bait consumed using 0.005% compound pellets bait by 7 day multiple-choice feeding trail method
Cricetomys gambianus [10] = experiment: Rodenticidal activity against invasive Cricetomys gambianus (Gambian giant pouched rat) assessed as rodent body weight using 0.005% compound pellets bait by 7 day multiple-choice feeding trail method (reference value: 1.44 kg)
Cricetomys gambianus [11] = experiment: Rodenticidal activity against invasive Cricetomys gambianus (Gambian giant pouched rat) assessed as rodent body weight using 0.005% compound blocks bait by 7 day multiple-choice feeding trail method (reference value: 1.44 kg)
Cricetomys gambianus [12] = experiment: Rodenticidal activity against invasive Cricetomys gambianus (Gambian giant pouched rat) assessed as rodent mortality using 0.005% compound pellets bait by 7 day multiple-choice feeding trail method
Cricetomys gambianus [13] = experiment: Rodenticidal activity against invasive Cricetomys gambianus (Gambian giant pouched rat) assessed as rodent mortality using 0.005% compound blocks bait by 7 day multiple-choice feeding trail method
Cricetomys gambianus [14] = experiment: Rodenticidal activity against invasive Cricetomys gambianus (Gambian giant pouched rat) assessed as mean bait consumed using 0.005% compound blocks bait by 7 day multiple-choice feeding trail method
Cricetomys gambianus [15] = experiment: Rodenticidal activity against invasive Cricetomys gambianus (Gambian giant pouched rat) assessed as proportion of bait consumed using 0.0005% compound pellets bait by 7 day multiple-choice feeding trail method
Cricetomys gambianus [16] = experiment: Rodenticidal activity against invasive Cricetomys gambianus (Gambian giant pouched rat) assessed as mean duration to death using 0.0005% compound pellets bait by 7 day multiple-choice feeding trail method
Cricetomys gambianus [17] = experiment: Rodenticidal activity against invasive Cricetomys gambianus (Gambian giant pouched rat) assessed as rodent body weight using 0.0005% compound pellets bait by 7 day multiple-choice feeding trail method (reference value: 1.44 kg)
Cricetomys gambianus [18] = experiment: Rodenticidal activity against invasive Cricetomys gambianus (Gambian giant pouched rat) assessed as rodent mortality using 0.0005% compound pellets bait by 7 day multiple-choice feeding trail method
Cricetomys gambianus [19] = experiment: Rodenticidal activity against invasive Cricetomys gambianus (Gambian giant pouched rat) assessed as mean bait consumed using 0.0005% compound pellets bait by 7 day multiple-choice feeding trail method
Cricetomys gambianus [20] = experiment: Rodenticidal activity against invasive Cricetomys gambianus (Gambian giant pouched rat) assessed as proportion of bait consumed using 0.0025% compound pellets bait by 7 day multiple-choice feeding trail method
Cricetomys gambianus [21] = experiment: Rodenticidal activity against invasive Cricetomys gambianus (Gambian giant pouched rat) assessed as mean duration to death using 0.0025% compound pellets bait by 7 day multiple-choice feeding trail method
Cricetomys gambianus [22] = experiment: Rodenticidal activity against invasive Cricetomys gambianus (Gambian giant pouched rat) assessed as mean bait consumed using 0.0025% compound pellets bait by 7 day multiple-choice feeding trail method
Cricetomys gambianus [23] = experiment: Rodenticidal activity against invasive Cricetomys gambianus (Gambian giant pouched rat) assessed as rodent body weight using 0.0025% compound pellets bait by 7 day multiple-choice feeding trail method (reference value: 1.44 kg)
Cricetomys gambianus [24] = experiment: Rodenticidal activity against invasive Cricetomys gambianus (Gambian giant pouched rat) assessed as rodent mortality using 0.0025% compound pellets bait by 7 day multiple-choice feeding trail method

CN(c1c(Br)cc(Br)cc1Br)c1c([N+](=O)[O-])cc([N+](=O)[O-])cc1C(F)(F)F [BROMETHALIN]
Activity (Cricetomys gambianus [1]): 0.21%
Time (Cricetomys gambianus [2]): 14 days
Activity (Cricetomys gambianus [3]): 1.55 kg
Activity (Cricetomys gambianus [4]): 20%
Activity (Cricetomys gambianus [5]): 25.58 g

O=C1c2ccccc2C(=O)C1C(=O)C(c1ccccc1)c1ccccc1 [DIPHENADIONE]
Activity (Cricetomys gambianus [6]): 0.3%
Activity (Cricetomys gambianus [7]): 106.2 g
Time (Cricetomys gambianus [8]): 12 days
Activity (Cricetomys gambianus [9]): 0.35%
Activity (Cricetomys gambianus [10]): 1.47 kg
Activity (Cricetomys gambianus [11]): 1.5 kg
Activity (Cricetomys gambianus [12]): 0%
Activity (Cricetomys gambianus [13]): 17%
Activity (Cricetomys gambianus [14]): 92.6 g

O=C1c2ccccc2C(=O)C1C(=O)C(c1ccccc1)c1ccc(Cl)cc1 (centres undefined) [CHLOROPHACINONE]
Activity (Cricetomys gambianus [15]): 0.3%
Time (Cricetomys gambianus [16]): 11.7 days
Activity (Cricetomys gambianus [17]): 1.47 kg
Activity (Cricetomys gambianus [18]): 50%
Activity (Cricetomys gambianus [19]): 89.7 g

O=c1oc2ccccc2c(O)c1C1CC(c2ccc(-c3ccc(Br)cc3)cc2)Cc2ccccc21 (centres undefined) [BRODIFACOUM]
Activity (Cricetomys gambianus [20]): 0.39%
Time (Cricetomys gambianus [21]): 12.2 days
Activity (Cricetomys gambianus [22]): 89 g
Activity (Cricetomys gambianus [23]): 1.37 kg
Activity (Cricetomys gambianus [24]): 100%
